According to patent US4458076A, “3-(4-Piperidinyl)-1,2-benzisothiazoles” (Hoechst-Roussel Pharmaceuticals, priority 1983, dated 1984):
Read-outs that look alike come from different tables or passages of the source.

Columns and labels:
[1] = system: phenyl-p-quinone writhing; assay: analgetic activity in the phenyl-p-quinone writhing assay; assay type: in vivo; conditions: Mus musculus, sc; subcutaneous dose effecting an approximately 50% inhibition of writhing in mice
Description: 3-(4-piperidinyl)-1,2-benzisothiazoles of the present invention are useful as analgetics due to their ability to alleviate pain in mammals. […] Exptl. Biol Med., 95 729 (1957)]. Thus, for instance, the subcutaneous dose effecting an approximately 50% inhibition of writhing (ED50) in mice produced in this assay is as shown in Table 2.

[2] = system: apomorphine-induced climbing; assay: antipsychotic activity in the climbing mice assay (apomorphine-induced climbing); assay type: in vivo, CK-1 male mice; conditions: Mus musculus, ip, inhibition of climbing, compound intraperitoneally 30 minutes prior to apomorphine 1.5 mg/kg subcutaneously, readings at 10, 20 and 30 minutes, linear regression
Procedure: The subject CK-1 male mice (23-27 grams) are group-housed under standard laboratory conditions. The mice are individually placed in wire mesh stick cages (4"×4" by 10") and are allowed one hour for adaptation and exploration of the new environment.
For evaluation of climbing, 3 readings are taken at 10, 20 and 30 minutes after apomorphine administration according to the following scale: […]
Mice consistently climbing before the injection of apormorphine will be discarded.
With full-developed apomorphine climbing, the animals are hanging on to the cage walls, rather motionless, over longer periods of time. By contrast, climbs due to mere motor stimulation usually only last a few seconds.

CN1CCC(c2nsc3ccccc23)CC1 [3-(1-Methyl-4-piperidinyl)-1,2-benzisothiazole]
ED50 [1]: 0.73 mg/kg

c1ccc2c(C3CCNCC3)nsc2c1 [3-(4-piperidinyl)-1,2-benzisothiazole]
ED50 [1]: 2.1 mg/kg

O=c1[nH]c2ccccc2n1CCCN1CCC(c2nsc3ccccc23)CC1 [3-[1-(1,3-Dihydro-2-oxo-2H-benzimidazol-1-ylpropyl)-4-piperidinyl]-1,2-benzisothiazole]
ED50 [2]: 0.32 mg/kg

Fc1ccc2c(CCCN3CCC(c4nsc5ccccc45)CC3)noc2c1 [3-[1-(6-Fluoro-1,2-benzisoxazole-3-propyl)-4-piperidinyl]-1,2-benzisothiazole]
ED50 [1]: 0.3 mg/kg
ED50 [2]: 0.17 mg/kg

c1ccc2c(C3CCN(CC4CC4)CC3)nsc2c1 [3-{1-(cyclopropylmethyl)-4-piperidinyl}-1,2-benzisothiazole]
ED50 [1]: 0.07 mg/kg
ED50 [2]: 5.8 mg/kg

Fc1ccc(C(CCCN2CCC(c3nsc4ccccc34)CC2)c2ccc(F)cc2)cc1 [3-{1-[4,4-bis-(4-Fluorophenyl)-1-butyl]-4-piperidinyl}-1,2-benzisothiazole]
ED50 [2]: 3.3 mg/kg

c1ccc(CCN2CCC(c3nsc4ccccc34)CC2)cc1 [3-{1-[Phenethyl]-4-piperidinyl}-1,2-benzisothiazole]
ED50 [1]: 0.2 mg/kg
ED50 [2]: 7 mg/kg

Cc1[nH]c2ccccc2c1CCCN1CCC(c2nsc3ccccc23)CC1 [3-{3-[4-(1,2-benzisothiazol-3-yl)piperidinyl]propyl}-2-methyl indole]
ED50 [2]: 0.17 mg/kg

O=C(CCCN1CCC(O)(c2ccc(Cl)cc2)CC1)c1ccc(F)cc1 [haloperidol, reference compound]
ED50 ([2]; read-out: ANT[…] (ED50 mg/kg)): 0.11 mg/kg

CC(C)=CCN1CCC2(C)c3cc(O)ccc3CC1C2C (centres unmarked) [pentazocine, reference compound]
ED50 [1]: 1.3 mg/kg

CCC(=O)O[C@](Cc1ccccc1)(c1ccccc1)[C@H](C)CN(C)C [propoxyphene, reference compound]
ED50 [1]: 3.9 mg/kg
